From publication PMC7315737, “The putative Escherichia coli dehydrogenase YjhC metabolises two dehydrated forms of N-acetylneuraminate produced by some sialidases” (Bioscience Reports, 2020)

Biological target: T1, YjhC (Escherichia coli, UniProt P39353)
T1 construct: gene nanY; full-length ORF from ASKA library in pCA24N, N-terminal His6-tag kept, expressed in E. coli BL21
Assay: LC-MS of ligand co-purified with the enzyme
Assay type: binding
Details: co-purified after metal affinity and gel filtration

T1 sequence (P39353 whole entry): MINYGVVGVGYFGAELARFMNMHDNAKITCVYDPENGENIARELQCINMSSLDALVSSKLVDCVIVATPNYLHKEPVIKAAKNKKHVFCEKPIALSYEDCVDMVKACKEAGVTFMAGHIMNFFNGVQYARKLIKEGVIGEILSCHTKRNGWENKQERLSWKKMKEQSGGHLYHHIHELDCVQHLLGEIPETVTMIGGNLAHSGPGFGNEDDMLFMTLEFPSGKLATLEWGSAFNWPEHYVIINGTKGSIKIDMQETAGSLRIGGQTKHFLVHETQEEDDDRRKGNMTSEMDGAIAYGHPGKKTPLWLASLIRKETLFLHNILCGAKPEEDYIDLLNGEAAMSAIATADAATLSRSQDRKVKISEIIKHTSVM

NC(=O)C1=CN([C@@H]2O[C@H](COP(=O)(O)OP(=O)(O)OC[C@H]3O[C@@H](n4cnc5c(N)ncnc54)[C@H](O)[C@@H]3O)[C@@H](O)[C@H]2O)C=CC1 [NADH]
co-purified ligand detected: presence of small amounts of NAD^+ and NADH
